According to PubChem BioAssay (NCI):
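Cultured in 96-well plates, cells were exposed to test compound for 48 hours across five concentrations. TGI is the concentration that stops growth completely.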

Key:
Experiment in all cases: NCI-60 cell line screen, 48 h
786-0 renal = tested on: 786-0 renal
A498 renal = tested on: A498 renal
A549 NSCLC = tested on: A549 NSCLC
ACHN renal = tested on: ACHN renal
BT-549 breast = tested on: BT-549 breast
CAKI-1 renal = tested on: CAKI-1 renal
CCRF-CEM leukemia = tested on: CCRF-CEM leukemia
COLO 205 colon = tested on: COLO 205 colon
DU-145 prostate = tested on: DU-145 prostate
EKVX NSCLC = tested on: EKVX NSCLC
HCC-2998 colon = tested on: HCC-2998 colon
HCT-116 colon = tested on: HCT-116 colon
HCT-15 colon = tested on: HCT-15 colon
HL-60(TB) leukemia = tested on: HL-60(TB) leukemia
HOP-62 NSCLC = tested on: HOP-62 NSCLC
HOP-92 NSCLC = tested on: HOP-92 NSCLC
HS 578T breast = tested on: HS 578T breast
HT29 colon = tested on: HT29 colon
IGROV1 ovarian = tested on: IGROV1 ovarian
KM12 colon = tested on: KM12 colon
LOX IMVI melanoma = tested on: LOX IMVI melanoma
M14 melanoma = tested on: M14 melanoma
MALME-3M melanoma = tested on: MALME-3M melanoma
MCF7 breast = tested on: MCF7 breast
MDA-MB-231 breast = tested on: MDA-MB-231 breast
MDA-MB-435 = tested on: MDA-MB-435
MDA-N = tested on: MDA-N
MOLT-4 leukemia = tested on: MOLT-4 leukemia
NCI-H23 lung = tested on: NCI-H23 lung
NCI-H460 lung = tested on: NCI-H460 lung
NCI-H522 lung = tested on: NCI-H522 lung
NCI/ADR-RES ovarian = tested on: NCI/ADR-RES ovarian
OVCAR-3 ovarian = tested on: OVCAR-3 ovarian
OVCAR-4 ovarian = tested on: OVCAR-4 ovarian
OVCAR-5 ovarian = tested on: OVCAR-5 ovarian
OVCAR-8 ovarian = tested on: OVCAR-8 ovarian
PC-3 prostate = tested on: PC-3 prostate
RPMI-8226 leukemia = tested on: RPMI-8226 leukemia
RXF 393 renal = tested on: RXF 393 renal
SF-268 CNS = tested on: SF-268 CNS
SF-295 CNS = tested on: SF-295 CNS
SF-539 CNS = tested on: SF-539 CNS
SK-MEL-2 melanoma = tested on: SK-MEL-2 melanoma
SK-MEL-28 melanoma = tested on: SK-MEL-28 melanoma
SK-MEL-5 melanoma = tested on: SK-MEL-5 melanoma
SK-OV-3 ovarian = tested on: SK-OV-3 ovarian
SN12C renal = tested on: SN12C renal
SNB-19 CNS = tested on: SNB-19 CNS
SW-620 colon = tested on: SW-620 colon
T-47D breast = tested on: T-47D breast
TK-10 renal = tested on: TK-10 renal
U251 CNS = tested on: U251 CNS
UACC-257 melanoma = tested on: UACC-257 melanoma
UACC-62 melanoma = tested on: UACC-62 melanoma
K-562 leukemia = tested on: K-562 leukemia
NCI-H226 lung = tested on: NCI-H226 lung
SNB-75 CNS = tested on: SNB-75 CNS
SR leukemia = tested on: SR leukemia
UO-31 renal = tested on: UO-31 renal

Measured: TGI

CC1(C)CC[C@]2(C)CC[C@]3(C)C(=CC[C@@H]4[C@@]5(C)CCC(=O)C(C)(C)[C@@H]5[C@H](O)C[C@]43C)[C@@H]2C1
31.6 µM: MALME-3M melanoma
35.4 µM: BT-549 breast
32.3 µM: SF-295 CNS | UACC-257 melanoma
31.1 µM: RXF 393 renal
29.4 µM: UACC-62 melanoma
30.6 µM: ACHN renal | SNB-19 CNS
32.4 µM: EKVX NSCLC
39.3 µM: HCT-15 colon
42.2 µM: SW-620 colon
34.4 µM: DU-145 prostate
33.9 µM: NCI-H460 lung
35.3 µM: NCI-H23 lung
34.3 µM: OVCAR-8 ovarian
33.7 µM: CAKI-1 renal
30.1 µM: TK-10 renal
32 µM: COLO 205 colon | SF-268 CNS
29.5 µM: SN12C renal
32.1 µM: IGROV1 ovarian | SF-539 CNS
30 µM: SK-MEL-2 melanoma
23.7 µM: MDA-MB-231 breast
35.1 µM: MCF7 breast
31.8 µM: HT29 colon
34.8 µM: SK-MEL-28 melanoma
29.7 µM: MDA-N
39.7 µM: MDA-MB-435
40.7 µM: M14 melanoma
32.8 µM: LOX IMVI melanoma
31.9 µM: NCI-H522 lung
31.5 µM: HOP-62 NSCLC | SK-MEL-5 melanoma
37.9 µM: KM12 colon
31.7 µM: HOP-92 NSCLC | SK-OV-3 ovarian
37.7 µM: T-47D breast
36.8 µM: HS 578T breast
54.3 µM: A549 NSCLC
> 100 µM: CCRF-CEM leukemia | HL-60(TB) leukemia | MOLT-4 leukemia
38.6 µM: NCI/ADR-RES ovarian
30.5 µM: HCT-116 colon | U251 CNS
30.7 µM: OVCAR-5 ovarian
34.7 µM: OVCAR-4 ovarian
31 µM: A498 renal | OVCAR-3 ovarian
30.9 µM: 786-0 renal | PC-3 prostate
28.9 µM: HCC-2998 colon
53.2 µM: RPMI-8226 leukemia

Cc1ccc(NC(=O)c2cc(S(=O)(=O)Nc3n[nH]c(=O)[nH]3)c(SSc3cc(Cl)c(C(=O)Nc4ccc(C)cc4)cc3S(=O)(=O)Nc3n[nH]c(=O)[nH]3)cc2Cl)cc1
not listed: DU-145 prostate | RXF 393 renal | SF-539 CNS | T-47D breast
> 100 µM: all other assays above

COc1ccc(/C=N/n2c(C)n[nH]c2=O)c(OC)c1
9.01 µM: HS 578T breast
not listed: HL-60(TB) leukemia | HOP-92 NSCLC | IGROV1 ovarian | LOX IMVI melanoma | NCI-H522 lung | RXF 393 renal | SK-MEL-5 melanoma | TK-10 renal | SR leukemia
> 100 µM: all other assays above
